Assays:
GST27 [1] = experiment: GST27 induction, metcamifen post-treatment during germination; format: cell-based, maize; conditions: for GST27 Mean: post-treatment in germination media (2.5 g/L Gelzan)
Method: (§1) For the examples below, GST27 was used as a quick indicator for treatment effectiveness.
Doubled haploid embryos were treated with metcamifen during germination. Metcamifen was tested in the germination media at 0, 5, and 10 mg/L after colchicine treatment completion for 24 or 48 hours. The germination media comprised Gelzan at a concentration of 3.5 g/L. Four genotypes were tested representing two heterotic groups. […] The percent potting rate was not increased as result of these post-treatments. […] This led to a looping of the roots. A reduction in Gelzan concentration from 3.5 g/L to 2.5 g/L was tested (comparison data not presented here). The experiments were then carried out with 2.5 g/L Gelzan for metcamifen post-treatments while the control (0 metcamifen) contained 3.5 g/L Gelzan. Metcamifen was tested as 0, 5, 10 and 20 mg/L after colchicine treatment completion for 24 and 48 hours. The reduction in Gelzan of the metcamifen post-treatments led to a higher percent potting rate (see Table 5).

GST27 [2] = experiment: GST27 induction, metcamifen pre-treatment of maize ears; format: cell-based
Method: as §1
The effect of temperature was tested independently by comparing 6° C. and 28° C. for both 3 and 5 days with 150 PAR light.
Maize ears were pre-treated with metcamifen prior to embryo isolation and before moving the embryos to colchicine-containing doubling media. In all experiments, doubling media is semi-solid, thickened with Gelzan, unless liquid media is specified. Two methods of delivering the safener at concentrations of 100 and 1000 mg/L were tested. The first method wrapped the ear in a paper towel that was wet with formulated metcamifen. The second method used a sprayer to deliver the formulated metcamifen onto the ear surface at 6° C. with 150 PAR light. GST27 was measured after metcamifen pre-treatment and again at the end of colchicine treatment. A low level of GST27 was induced (<10 ng/mg Total Soluble Protein (TSP)) at the end of the ear pre-treatment. Following ear pre-treatment, embryos were isolated and treated with colchicine for 48 hours.
The addition of 0.5% Tween20 in the formulation with metcamifen at both 100 and 1000 mg/L was tested in combination with spraying corn ears as a pre-treatment prior to embryo isolation.

isolated embryos = experiment: Potting and transplant rate, thiamethoxam liquid media pre-treatment prior to colchicine doubling; format: in vivo, maize
Description: (§2) As used herein, the term “potted rate” or “potting rate” refers to the percent of germinated embryos successfully transferred to soil from total treated haploid embryos. The “potted rate” is used as an indication of plant health in monitoring the success of recovery and growth after treatment of haploids. As used herein, the term “transplant rate” refers to the survival of healthy plants after embryos were germinated and transferred to soil.
TMX pre-treatment application to isolated embryos prior to colchicine doubling was done in 2 genotypes with replication. Isolated embryos were plated on filter paper and pre-treated with a formulation of TMX at concentrations ranging from 10-1000 mg/L in liquid media. The pre-treatments incubated for 0.5 to 24 hours. Following the pre-treatment, embryos were treated with colchicine for chromosome doubling and plant regeneration. The effect on potting rate and transplant rate were evaluated (see Table 10).
In a follow-up experiment, the liquid pre-treatment was tested at 30 minute and 1-hour durations to determine if a shorter duration would result in better potting and transplant rates than observed in the 1 hour treatments shown in Table 10. These were performed in the same manner as described above, in triplicate.

doubled haploids = experiment: Potting rate, thiamethoxam post-treatment during germination; format: in vivo, maize; conditions: 14-21 days
Description: as §2
TMX was applied to doubled haploids by adding it to the germination media during the germination process. TMX was tested in 3 genotypes, in triplicate, with concentrations ranging from […], and the post-treatments incubated for 14 to 21 days (the normal duration of the regeneration period before transplant). The effect on potting rate was evaluated (see Table 12); no plants were advanced for transplant rate assessments due to poor germination.

[3] = Table 10: liquid media pre-treatment, TMX 10 mg/L, 1 hr
[4] = Table 10: liquid media pre-treatment, TMX 10 mg/L, 24 hr
[5] = Table 10: liquid media pre-treatment, TMX 100 mg/L, 1 hr
[6] = Table 10: liquid media pre-treatment, TMX 100 mg/L, 24 hr
[7] = Table 10: liquid media pre-treatment, TMX 1000 mg/L, 1 hr
[8] = Table 10: liquid media pre-treatment, TMX 1000 mg/L, 24 hr
[9] = Table 11: liquid pre-treatment, TMX 100 mg/L, 30 min
[10] = Table 11: liquid pre-treatment, TMX 100 mg/L, 1 hr
[11] = Table 11: liquid pre-treatment, TMX 1000 mg/L, 30 min
[12] = Table 11: liquid pre-treatment, TMX 1000 mg/L, 1 hr

Compound: CNC(=O)Nc1ccc(S(=O)(=O)NC(=O)c2ccccc2OC)cc1 [Metcamifen, metcamifen]
- GST27 expression versus control (GST27 [1]; post-treatment 5 and 10 mg/L, 3.5 g/L Gelzan, 24 and 48 hours): higher than the control group
- GST27 Mean (GST27 [1]; 5 mg/L, Duration 24 hours): 327 ng/mg TSP
- GST27 Mean (GST27 [1]; 5 mg/L, Duration 48 hours): 317 ng/mg TSP
- GST27 Mean (GST27 [1]; 10 mg/L, Duration 24 hours): 345 ng/mg TSP
- GST27 Mean (GST27 [1]; 10 mg/L, Duration 48 hours): 290 ng/mg TSP
- GST27 Mean (GST27 [1]; 20 mg/L, Duration 24 hours): 404 ng/mg TSP
- GST27 Mean (GST27 [1]; 20 mg/L, Duration 48 hours): 400 ng/mg TSP
- GST27 induced at the end of the ear pre-treatment (GST27 [2]; ear pre-treatment, 100 and 1000 mg/L, 6° C.): < 10 ng/mg Total Soluble Protein (TSP)
- GST27 induced by ear pre-treatment (GST27 [2]; ear pre-treatment, as restated in Example 3): less than 10 ng/ml of TSP
- GST27 before doubling, Mean (GST27 [2]; ear pre-treatment, metcamifen 100 mg/L, 3 days, 6° C.): 4 ng/mg of TSP
- GST27 after doubling, Mean (GST27 [2]; ear pre-treatment, metcamifen 100 mg/L, 3 days, 6° C., then colchicine 48 hours): 156 ng/mg of TSP
- GST27 before doubling, Mean (GST27 [2]; ear pre-treatment, metcamifen 100 mg/L, 5 days, 6° C.): 2 ng/mg of TSP
- GST27 after doubling, Mean (GST27 [2]; ear pre-treatment, metcamifen 100 mg/L, 5 days, 6° C., then colchicine 48 hours): 245 ng/mg of TSP
- GST27 before doubling, Mean (GST27 [2]; ear pre-treatment, metcamifen 1000 mg/L, 3 days, 6° C.): 3 ng/mg of TSP
- GST27 after doubling, Mean (GST27 [2]; ear pre-treatment, metcamifen 1000 mg/L, 3 days, 6° C., then colchicine 48 hours): 178 ng/mg of TSP
- GST27 before doubling, Mean (GST27 [2]; ear pre-treatment, metcamifen 1000 mg/L, 5 days, 6° C.): 4 ng/mg of TSP
- GST27 after doubling, Mean (GST27 [2]; ear pre-treatment, metcamifen 1000 mg/L, 5 days, 6° C., then colchicine 48 hours): 303 ng/mg of TSP
- GST27 induction at the end of the colchicine treatment (GST27 [2]; ear pre-treatment, then colchicine 48 hours): increased but insignificant
- GST27 expression level with addition of 0.5% Tween20 (GST27 [2]; spraying corn ears, 100 and 1000 mg/L, over 4 days): did not improve

Compound: CN1COCN(Cc2cnc(Cl)s2)/C1=N\[N+](=O)[O-] [TMX, thiamethoxam]
- Potting Rate Mean (isolated embryos; [3]): 55%
- Transplant Rate Mean (isolated embryos; [3]): 51%
- Potting Rate Mean (isolated embryos; [4]): 7%
- Transplant Rate Mean (isolated embryos; [4]): 7%
- Potting Rate Mean (isolated embryos; [5]): 38%
- Transplant Rate Mean (isolated embryos; [5]): 37%
- Potting Rate Mean (isolated embryos; [6]): 15%
- Transplant Rate Mean (isolated embryos; [6]): 15%
- Potting Rate Mean (isolated embryos; [7]): 58%
- Transplant Rate Mean (isolated embryos; [7]): 55%
- Potting Rate Mean (isolated embryos; [8]): 11%
- Transplant Rate Mean (isolated embryos; [8]): 11%
- Potting Rate Mean (isolated embryos; [9]): 68%
- Transplant Rate Mean (isolated embryos; [9]): 54%
- Potting Rate Mean (isolated embryos; [10]): 77%
- Transplant Rate Mean (isolated embryos; [10]): 66%
- Potting Rate Mean (isolated embryos; [11]): 51%
- Transplant Rate Mean (isolated embryos; [11]): 42%
- Potting Rate Mean (isolated embryos; [12]): 74%
- Transplant Rate Mean (isolated embryos; [12]): 56%
- Potting Rate Mean (doubled haploids; TMX 0.5 g/L): 53%
- Potting Rate Mean (doubled haploids; TMX 1 g/L): 50%
- Potting Rate Mean (doubled haploids; TMX 1.5 g/L): 27%
- Potting Rate Mean (doubled haploids; TMX 5 g/L): 3%
- Potting Rate Mean (doubled haploids; TMX 12 g/L): 0%

From patent US20260248087A1, “GENERATING DOUBLED HAPLOID PLANTS” (Syngenta Crop Protection AG, priority 2023, published 2026)
